Results as given in US5767128A, “1,3-dihydro-2H-pyrrolo[2,3-b]pyridin-2-one compounds” (Adir et Compagnie, priority 1994, dated 1998).
Read-outs that look alike come from different tables or passages of the source.

What was measured:
[1] = system: abdominal cramps induced in the rat by acetic acid; experiment: Cramps induced with acetic acid (KOSTER test), analgesic activity, per os; format: in vivo, rat (male Wistar); settings: po, read-out: Acetic Acid Writhing, % inhibition (% decrease in the number of cramps compared with the control animals)
Experimental: 1) Cramps induced with acetic acid
Male Wistar rats randomly divided into groups of 5 (weight 150±10 g) receive the test products per os 30 minutes before the intraperitoneal injection of 1 cm^3 of 1% acetic acid.
The number of cramps is counted during the 25 minutes which follow the injection.
(§1) The percentage activity was evaluated for each compound (% decrease in the number of cramps in the treated animals compared with the control animals).

[2] = system: cramps induced in the mouse by phenylbenzoquinone; experiment: Cramps induced with phenylbenzoquinone (SIEGMUND test), analgesic activity, per os; format: in vivo, mouse (male CD-1); settings: po, read-out: PBO Whrithing, % inhibition (% decrease in the number of cramps compared with the control animals)
Experimental: 2) Cramps induced with phenylbenzoquinone
Male CD-1 mice randomly divided into groups of 5 receive the test products per os 30 minutes before the intraperitoneal injection of 0.25 cm3 of a 0.01% solution of phenylbenzoquinone in a 95:5 mixture of water and ethanol.
The number of cramps is counted between the 5th and the 15th minute after the injection of phenylbenzoquinone.
as §1

[3] = rat, 50 mg/kg per os, 30 minutes before acetic acid, 25 minutes count
[4] = mouse, 50 mg/kg per os, 30 minutes before phenylbenzoquinone, count 5th to 15th minute

SMILES | inhibition at 50 mg/kg ([1]; Rattus norvegicus) [%] | inhibition at 50 mg/kg ([2]; Mus musculus) [%] | inhibition at 50 mg/kg [1, 3] [%] | inhibition at 50 mg/kg [2, 4] [%]
CC(=O)Oc1ccccc1C(=O)O [Aspirin, reference compound] | 56 | 62 |  | 
Cn1c(=O)oc2cc(C(=O)c3ccccc3)cnc21 [Example 5, 3-METHYL-6-BENZOYLOXAZOLO[4,5-b]PYRIDIN-2(3-ONE] |  |  | 85 | 85
O=C(c1ccccc1)c1cnc2[nH]c(=O)oc2c1 [Example 6, 6-BENZOYLOXAZOLO[4,5-b]PYRIDIN-2(3H)-ONE] |  |  | 88 | 
CC(=O)c1cnc2c(c1)CC(=O)N2C [Example 13, 1,3-DIHYDRO-1-METHYL-5-ACETYL-2H-PYRROLO[2,3-b]PYRIDIN-2-ONE] |  |  | 96 | 
Cn1c(=O)oc2cc(CN3CCN(c4ccccc4)CC3)cnc21 [Example 16, 3-METHYL-6-[(4-PHENYLPIPERAZIN-1-YL)METHYL]OXAZOLO[4,5-b]PYRIDIN-2(3H)-ONE] |  |  | 98 | 57
Cn1c(=O)oc2cc(CCCN3CCN(c4ccccc4)CC3)cnc21 [Example 20, 3-METHYL-6-[3-(4-PHENYLPIPERAZIN-1-YL)PROP-1-YL]OXAZOLO[4,5-b]PYRIDIN-2(3H)-ONE] |  |  |  | 100
Cn1c(=O)oc2cc(C(=O)CN3CCN(c4ccccc4)CC3)cnc21 [Example 22, 3-METHYL-6-[2-(4-PHENYLPIPERAZIN-1-YL)ACETYL]OXAZOLO[4,5-b]PYRIDIN-2(3H)-ONE] |  |  | 97 | 53
Cn1c(=O)oc2cc(C(O)CN3CCN(c4ccccc4)CC3)cnc21 (stereo not drawn) [Example 24, 3-METHYL-6-[2-(4-PHENYLPIPERAZIN-1-YL)-1-HYDROXYETHYL]OXAZOLO[4,5-b]PYRIDIN-2(3H)-ONE] |  |  | 86 | 97
CN1C(=O)Cc2cc(CN3CCN(c4ccccc4)CC3)cnc21 [Example 46, 1,3-DIHYDRO-5-(4-PHENYLPIPERAZIN-1-YLMETHYL)-1-METHYL-2H-PYRROLO[2,3-b]PYRIDIN-2-ONE] |  |  |  | 67
CN1C(=O)Cc2cc(C(=O)CN3CCN(c4ccccc4)CC3)cnc21 [Example 47, 1,3-DIHYDRO-5-[2-(4-PHENYLPIPERAZIN-1-YL)ACETYL)-1-METHYL-2H-PYRROLO[2,3-b]PYRIDIN-2-ONE] |  |  |  | 90
